Legend:
Experiment in all cases: MIC, suppression of radial hyphal growth on malt extract nutrient agar
Type in all cases: cell-based
[1] = test system: Aspergillus niger; settings: Example 3 synergism test, 26° C., read-out: MIC (ppm) Aspergillus niger
Protocol: (§1) Pieces of mycelium were punched out of a colony of the appropriate mold and incubated at 26° C. on a nutrient agar containing malt extract. Here, hyphal growth with and without active ingredient was compared.
(§2) The synergism was determined according to the method described by Kull et al. (F. C. Kull, P. C. Eismann, H. D. Sylvestrowicz, R. L. Mayer, Applied Microbiology 1961, 9, 538-541). The following relationships apply:
(§3) [formula] • SI=1 means additivity • SI>1 means antagonism • SI<1 means synergism • Qa=concentration of substance A which is the MIC • Qb=concentration of substance B which is the MIC • QA=concentration of substance A in the concentration of A/B at which microbial growth is suppressed • Qb=concentration of substance B in the concentration of A/B at which microbial growth is suppressed 3.1 Combinations of AZO and IPBC Against the Molds Aspergillus niger and Aspergillus versicolor

[2] = test system: Aspergillus versicolor; settings: Example 3 synergism test, 26° C., read-out: MIC (ppm) Aspergillus versicolor
Protocol: as §1, §2, §3

[3] = test system: Trichoderma virens; settings: Example 3 synergism test, 26° C., read-out: MIC against Trichoderma virens (ppm)
Protocol: (§4) For this purpose, pieces of mycelium were punched out of a colony of the appropriate mold and incubated at 26° C. on a nutrient agar containing malt extract. Here, hyphal growth with and without active ingredient was compared.
as §1, §2, §3

[4] = test system: Stachybotrys chartarum; settings: Example 3 synergism test, 26° C., read-out: MIC against Stachybotrys chartarum (ppm)
Protocol: as §4, §1, §2, §3

[5] = test system: Cladosporium cladosporioides; settings: Example 3 synergism test, 26° C., read-out: MIC against Cladosporium cladosporioides (ppm)
Protocol: as §4, §1, §2, §3

With `CO/C=C(/C(=O)OC)c1ccccc1Oc1cc(Oc2ccccc2C#N)ncn1` [AZO, methyl (E)-2-{2-[6-(2-cyanophenoxy)pyrimidin-4-yloxy]phenyl}-3-methoxyacrylate] the MIC [1] was 5000 µg/mL, the MIC [2] was 100 µg/mL and the MIC [3] was 1000 µg/mL. For the same compound, the MIC [4] was 100 µg/mL and the MIC [5] was 5 µg/mL.

From patent US20240306640A1, “BIOCIDAL MIXTURES” (LANXESS Deutschland GmbH, priority 2021, published 2024)
